These results are taken from patent US10544130B2, “Metallo-beta-lactamase inhibitors” (priority 2015, dated 2020).

Structures are written as SMILES. Where a name gives a salt, the structure may show the parent alone. Read-outs that look alike come from different tables or passages of the source.

The subject of data set [1] is Escherichia coli expressing NDM-1 (CLB30005, CLB30016). It is filed as cell-based. The following applies: with imipenem 1 μg/ml; 95% inhibition of bacterial growth. In outline:
(§1)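 Clinical strains were grown overnight at 35 °C on blood agar, adjusted to set OD600 in saline and diluted 1:100 into 1.1× CAMHB. Inhibitor was tested with and without imipenem at 1 μg/ml. After 22–24 h at 35 °C, absorbance was read to give synergistic concentration.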

Data set [2] concerns Klebsiella pneumoniae expressing VIM-1 (IHMA599644). It is filed as cell-based. Conditions: with imipenem 1 μg/ml; 95% inhibition of bacterial growth. In outline:
as §1

Data set [3] concerns Serratia marcescens expressing IMP-1 (CL5741). It is filed as cell-based. The following applies: with imipenem 1 μg/ml; 95% inhibition of bacterial growth. In outline: as §1
In data set [4] the test system is Pseudomonas aeruginosa PAO1 MB9798 (efflux+, IMP-1). The following applies: imipenem at 2 μg/mL. In outline:
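Isogenic PAO1 pair (efflux+ MB9798, efflux− MB9799, both IMP-1) tested by microbroth MIC with fixed imipenem and/or ceftazidime, usually at CLSI breakpoint, plus fixed class A/C inhibitor against AmpC. MBL inhibitor titrated; concentration restoring susceptibility recorded and fold difference between strains taken as efflux extent.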

Where [5] appears, read: ratio MITC95 PA 9798/MITC95 PA 9799.

Regarding `Nc1nc2c(-c3ccc(S(=O)(=O)N[C@H]4CCNC4)c(S(N)(=O)=O)c3-c3nn[nH]n3)cc(F)cc2[nH]1` [Example 399, (S)-4-(2-amino-6-fluoro-1H-benzo[d]imidazol-4-yl)-N^1-(pyrrolidin-3-yl)-3-(2H-tetrazol-5-yl)benzene-1,2-disulfonamide], in data set [1], the “Escherichia coli (NDM-1) MITC95” value was 0.7813 µM. The “Klebsiella pneumoniae (VIM-1) MITC95” value in data set [2] turned out to be 1.563 µM. Further, in data set [3], the “Serratia marcescens (IMP-1) MITC95” value was 1.563 µM.
With `NCc1nc(-c2cccc(-c3ccc(S(=O)(=O)N[C@H]4CNC[C@H]4N)c(S(N)(=O)=O)c3-c3nn[nH]n3)c2)c[nH]1` [Example 462], in data set [1], the “Escherichia coli (NDM-1) MITC95” value worked out at 1.563 µM. The “Klebsiella pneumoniae (VIM-1) MITC95” value in data set [2] was 1.563 µM. Moreover, the “Serratia marcescens (IMP-1) MITC95” value in data set [3] came out at 1.563 µM.
In the case of `NCCNS(=O)(=O)c1ccc(-c2cccc(C(=O)N[C@@H]3CNC[C@H]3O)c2)c(-c2nn[nH]n2)c1S(N)(=O)=O` [Example 344, 4′-(N-(2-aminoethyl)sulfamoyl)-N-((3R,4R)-4-hydroxypyrrolidin-3-yl)-3′-sulfamoyl-2′-(2H-tetrazol-5-yl)-[1,1′-biphenyl]-3-carboxamide], in data set [1], the “Escherichia coli (NDM-1) MITC95” value was 0.7813 µM. For the same compound, the “Klebsiella pneumoniae (VIM-1) MITC95” value in data set [2] was determined as 1.563 µM. The “Serratia marcescens (IMP-1) MITC95” value in data set [3] came to 1.563 µM.
Take `NC[C@]1(NS(=O)(=O)c2ccc(-c3ccc(N)nc3)c(-c3nn[nH]n3)c2S(N)(=O)=O)CCNC1` [Example 486, (R)-N1-(3-(aminomethyl)pyrrolidin-3-yl)-4-(6-aminopyridin-3-yl)-3-(2H-tetrazol-5-yl)benzene-1,2-disulfonamide dihydrochloride]: in data set [4] (fold difference between efflux + (MB9798) and efflux − (MB9799) strains), the Efflux ratio came to 2.00. The “Escherichia coli (NDM-1) MITC95” value in data set [1] turned out to be 0.7813 µM. The “Klebsiella pneumoniae (VIM-1) MITC95” value in data set [2] is 1.563 µM.
Regarding `NCCNS(=O)(=O)c1ccc(-c2ccc3nccn3c2)c(-c2nn[nH]n2)c1S(N)(=O)=O` [Example 401, N^1-(2-aminoethyl)-4-(imidazo[1,2-a]pyridin-6-yl)-3-(2H-tetrazol-5-yl)benzene-1,2-disulfonamide], the “Escherichia coli (NDM-1) MITC95” value in data set [1] turned out to be 0.7813 µM. Further, in data set [2], the “Klebsiella pneumoniae (VIM-1) MITC95” value was found to be 1.563 µM.
As for `NCCNC(=O)c1cc(-c2ccc(S(=O)(=O)NCCN)c(S(N)(=O)=O)c2-c2nn[nH]n2)ccc1N` [Example 451, 4-Amino-N-(2-aminoethyl)-4′-(N-(2-aminoethyl)sulfamoyl)-3′-sulfamoyl-2′-(2H-tetrazol-5-yl)-[1,1′-biphenyl]-3-carboxamide], the “Escherichia coli (NDM-1) MITC95” value in data set [1] amounted to 0.7813 µM. Also, the “Klebsiella pneumoniae (VIM-1) MITC95” value in data set [2] amounted to 0.7813 µM. Further, the “Serratia marcescens (IMP-1) MITC95” value in data set [3] was determined as 0.7813 µM.
Consider `NCCNS(=O)(=O)c1ccc(-c2cccc(NC(=O)[C@@H](N)CN)c2)c(-c2nn[nH]n2)c1S(N)(=O)=O` [Example 453, (S)-2,3-Diamino-N-(4′-(N-(2-aminoethyl)sulfamoyl)-3′-sulfamoyl-2′-(2H-tetrazol-5-yl)-[1,1′-biphenyl]-3-yl)propanamide], for which the “Escherichia coli (NDM-1) MITC95” value in data set [1] is 1.563 µM. Also, the “Klebsiella pneumoniae (VIM-1) MITC95” value in data set [2] amounted to 3.125 µM. Moreover, the “Serratia marcescens (IMP-1) MITC95” value in data set [3] turned out to be 3.125 µM.
Take `NC[C@H](N)CNS(=O)(=O)c1ccc(-c2cccc(-c3c[nH]c(N)n3)c2)c(-c2nn[nH]n2)c1S(N)(=O)=O` [Example 434, (S)-3′-(2-amino-1H-imidazol-4-yl)-N^4-(2,3-diaminopropyl)-2-(2H-tetrazol-5-yl)-[1,1′-biphenyl]-3,4-disulfonamide]: in data set [1], the “Escherichia coli (NDM-1) MITC95” value stood at 0.7813 µM. Also, in data set [2], the “Klebsiella pneumoniae (VIM-1) MITC95” value came out at 1.563 µM. Also, the “Serratia marcescens (IMP-1) MITC95” value in data set [3] is 1.563 µM.
For the compound `NC[C@H]1CCN(S(=O)(=O)c2ccc(-c3cccc4[nH]c(N)nc34)c(-c3nn[nH]n3)c2S(N)(=O)=O)C1` [Example 253, (R)-3-(2-amino-1H-benzo[d]imidazol-4-yl)-6-((3-(aminomethyl)pyrrolidin-1-yl)sulfonyl)-2-(2H-tetrazol-5-yl)benzenesulfonamide], the “Escherichia coli (NDM-1) MITC95” value in data set [1] was 1.563 µM. Moreover, in data set [2], the “Klebsiella pneumoniae (VIM-1) MITC95” value worked out at 1.563 µM. The “Serratia marcescens (IMP-1) MITC95” value in data set [3] was found to be 0.7813 µM.
In the case of `NC[C@@H](O)CNS(=O)(=O)c1ccc(-c2ccnc(N)c2)c(-c2nn[nH]n2)c1S(N)(=O)=O` [Example 419, (R)-N^1-(3-amino-2-hydroxypropyl)-4-(2-aminopyridin-4-yl)-3-(2H-tetrazol-5-yl)benzene-1,2-disulfonamide], the “Escherichia coli (NDM-1) MITC95” value in data set [1] is 0.1953 µM. Besides, in data set [2], the “Klebsiella pneumoniae (VIM-1) MITC95” value turned out to be 1.563 µM. In data set [3], the “Serratia marcescens (IMP-1) MITC95” value came to 0.7813 µM.
The corresponding values for `NCC(CN)NS(=O)(=O)c1ccc(-c2cccc(-c3cnc(N)[nH]3)n2)c(-c2nnn[nH]2)c1S(N)(=O)=O` [Example 438, 4-(6-(2-Amino-1H-imidazol-5-yl)pyridin-2-yl)-N^1-(1,3-diaminopropan-2-yl)-3-(1H-tetrazol-5-yl)benzene-1,2-disulfonamide] are 3.125 µM, 3.125 µM and 3.125 µM.
The corresponding values for `C[C@@H](N)CNS(=O)(=O)c1ccc(-c2cccc3sc(N)nc23)c(-c2nn[nH]n2)c1S(N)(=O)=O` [Example 390, 4-(2-amino-1,3-benzothiazol-4-yl)-N^1-[(2R)-2-aminopropyl]-3-(2H-tetrazol-5-yl)benzene-1,2-disulfonamide] are 3.125 µM, 3.125 µM and 1.563 µM.
The corresponding values for `Nc1ncc(-c2cc(-c3ccc(S(=O)(=O)N[C@@H]4CCNC4)c(S(N)(=O)=O)c3-c3nnn[nH]3)ccn2)[nH]1` [Example 440, (R)-4-(2-(2-Amino-1H-imidazol-5-yl)pyridin-4-yl)-N^1-(pyrrolidin-3-yl)-3-(1H-tetrazol-5-yl)benzene-1,2-disulfonamide] are 0.7813 µM, 1.563 µM and 1.563 µM.
On to `NCc1nc2c(-c3ccc(S(=O)(=O)N[C@H](CN)CO)c(S(N)(=O)=O)c3-c3nn[nH]n3)cccc2s1` [Example 363, (R)—N1-(1-amino-3-hydroxypropan-2-yl)-4-(2-(aminomethyl)benzo[d]thiazol-4-yl)-3-(2H-tetrazol-5-yl)benzene-1,2-disulfonamide], for which the Efflux ratio in data set [4] (setting [5]) came to 4.00. The “Escherichia coli (NDM-1) MITC95” value in data set [1] was 3.125 µM. Besides, in data set [2], the “Klebsiella pneumoniae (VIM-1) MITC95” value was 3.125 µM.
As to `Cn1nnc2c(-c3ccc(S(=O)(=O)N[C@H]4CCNC4)c(S(N)(=O)=O)c3-c3nn[nH]n3)cccc21` [Example 293, (S)-4-(1-methyl-1H-benzo[d][1,2,3]triazol-4-yl)-N1-(pyrrolidin-3-yl)-3-(2H-tetrazol-5-yl)benzene-1,2-disulfonamide], in data set [1], the “Escherichia coli (NDM-1) MITC95” value was 3.125 µM. The “Klebsiella pneumoniae (VIM-1) MITC95” value in data set [2] worked out at 3.125 µM. Besides, the “Serratia marcescens (IMP-1) MITC95” value in data set [3] turned out to be 3.125 µM.
On to `NC[C@@H](N)CNS(=O)(=O)c1ccc(-c2cccc3[nH]c(N)nc23)c(-c2nn[nH]n2)c1S(N)(=O)=O` [Example 375, (R)-4-(2-amino-1H-benzo[d]imidazol-4-yl)-N1-(2,3-diaminopropyl)-3-(2H-tetrazol-5-yl)benzene-1,2-disulfonamide], for which, in data set [4] (setting [5]), the Efflux ratio is given as 1.00. Further, the “Klebsiella pneumoniae (VIM-1) MITC95” value in data set [2] turned out to be 1.563 µM. Also, the “Serratia marcescens (IMP-1) MITC95” value in data set [3] was found to be 1.563 µM.
